Measured values from US4537769A (priority 1982, dated 1985).
Like-named read-outs stand apart in the source and are kept apart here.

System: H7N1 neuraminidase
Assay type: biochemical, influenza virus
Details: for Units of Activity: 37° C. for 24 hours; for Neuraminidase Activity-24 Hrs Post 37° C.: H7N1 vaccine
[1] = H7N1 vaccine with additive at .03%
[2] = H7N1 vaccine with additive at .07%
[3] = H7N1 vaccine with additive at .02%
[4] = H7N1 vaccine with additive at .05%
[5] = H7N1 vaccine with additive at .04%

C[C@H](N)C(=O)O [Alanine]
Units of Activity [1]: 9.0 Nanomoles of N--acetyl neurami

N[C@@H](CC(=O)O)C(=O)O [Aspartic Acid]
Units of Activity [2]: 5.9 Nanomoles of N--acetyl neurami

N[C@@H](CCC(=O)O)C(=O)O [Glutamic Acid]
Units of Activity (H7N1 vaccine with additive at .18%): 4.5 Nanomoles of N--acetyl neurami

NCC(=O)O [Glycine]
Units of Activity [3]: 8.5 Nanomoles of N--acetyl neurami

N[C@@H](Cc1c[nH]cn1)C(=O)O [Histidine]
Units of Activity [3]: 13.1 Nanomoles of N--acetyl neurami | Neuraminidase Activity-24 Hrs Post 37° C. (No. 1: Histidine 0.02 % w/v): 13.0 | Neuraminidase Activity-24 Hrs Post 37° C. (No. 2: Histidine 0.05 % w/v): 17.3 | Neuraminidase Activity-24 Hrs Post 37° C. (No. 3: Histidine 0.09 % w/v): 23.8 | Neuraminidase Activity-24 Hrs Post 37° C. (No. 4: Histidine 0.13 % w/v): 27.9

CC[C@H](C)[C@H](N)C(=O)O [Isoleucine]
Units of Activity [4]: 5.2 Nanomoles of N--acetyl neurami

CC(C)C[C@H](N)C(=O)O [Leucine]
Units of Activity (H7N1 vaccine with additive at .08%): 7.3 Nanomoles of N--acetyl neurami

NCCCC[C@H](N)C(=O)O [Lysine]
Units of Activity [2]: 8.5 Nanomoles of N--acetyl neurami

CSCC[C@H](N)C(=O)O [Methionine]
Units of Activity [3]: 8.9 Nanomoles of N--acetyl neurami

N[C@@H](Cc1ccccc1)C(=O)O [Phenylalanine]
Units of Activity [5]: 9.1 Nanomoles of N--acetyl neurami

O=C(O)[C@@H]1CCCN1 [Proline]
Units of Activity (H7N1 vaccine with additive at .09%): 12.3 Nanomoles of N--acetyl neurami | Neuraminidase Activity-24 Hrs Post 37° C. (No. 5: Proline 0.09 % w/v): 12.3 | Neuraminidase Activity-24 Hrs Post 37° C. (No. 6: Proline 0.18 % w/v): 17.5 | Neuraminidase Activity-24 Hrs Post 37° C. (No. 7: Proline 0.36 % w/v): 26.2 | Neuraminidase Activity-24 Hrs Post 37° C. (No. 8: Proline 0.54 % w/v): 30.7

N[C@@H](CO)C(=O)O [Serine]
Units of Activity [4]: 9.1 Nanomoles of N--acetyl neurami

C[C@@H](O)[C@H](N)C(=O)O [Threonine]
Units of Activity [5]: 6.7 Nanomoles of N--acetyl neurami

N[C@@H](Cc1c[nH]c2ccccc12)C(=O)O [Tryptophan]
Units of Activity (H7N1 vaccine with additive at .01%): 10.4 Nanomoles of N--acetyl neurami

N[C@@H](Cc1ccc(O)cc1)C(=O)O [Tyrosine]
Units of Activity [1]: 4.4 Nanomoles of N--acetyl neurami

CC(C)[C@H](N)C(=O)O [Valine]
Units of Activity (H7N1 vaccine with additive at .06%): 6.7 Nanomoles of N--acetyl neurami
